Source: patent US20210330861A1, “ANTIMICROBIAL COATING COMPOSITIONS” (BIOCANT - CENTRO DE INOVAÇÃO EM BIOTECNOLOGIA, priority 2012, published 2021)
Ends that are not written are not given here.

Key:
HUVEC = test: Soluble CM peptide interaction with cells, MTT assay; assay type: cell-based, human; details: 24 h contact with soluble peptide
Procedure: Two human cell types such as human endothelial umbilical vein cells (HUVEC) as a model for vascularized tissues and normal dermal human fibroblasts (NDHF) one of the most common cell type present in human connective tissue were used to evaluate the cytotoxicity induced by CM peptide immobilized surfaces. HUVECs (preferably, Lonza, Cat. Number CC-2517, Walkersville, Md., USA) were cultured using endothelial growth factor-2 media (EGM-2), bullet kit media (preferably, Lonza, Cat. Number CC-3156) for at least 24 h prior to further use. Passages below six were used for all experiments.
HUVEC and NDHF cells were cultured as previously mentioned and platted at a density of 4.2×10^3 cells/cm2 in 24-well plates. Cells were allowed to grow 24 h prior to any experiments performed. Different concentrations of CM peptide solutions (50, 30, 20, 10, 5, 2.5 and 1 μg/mL) were incubated with both cells for 24 hr to evaluate the cytotoxicity effect of CM peptides using MTT cell metabolic activity assay.
Initially cells were washed with warm phosphate buffer saline (PBS). […] Absorbance was measured at 540 nm with reference to 670 nm in a UV-visible spectrophotometer (SynergyMx from Biotek Instruments, Winooski, Vt., United States) (I don't understand by reference).

E. coli = test: Antimicrobial activity testing of peptide capped gold nanoparticles and peptide in bacterial suspension (colony count); assay type: cell-based
Procedure: (§1) S. aureus and E. coli were grown at 37° C. and maintained on LB plates (preferably, Luria-Bertani broth with 1.5% agar). Bacteria were also grown in LB media for overnight at 37° C. and cell counts were quantified by OD 600 measurements. Different amounts of peptide capped gold nanoparticles, peptide (5-10 μg/mL) and HEPES reduced gold nanoparticles (10 μg/mL) were added into bacterial suspensions ([…]) in presence of 10% human serum and incubated for 4 h at 37° C. 100 μL aliquots were taken out from the respective suspensions at 2 h intervals and diluted in PBS buffer to give […] and plated on LB agar plates followed by incubation at 37° C. Colonies were counted after 24 h of incubation. In another experiments, citric acid reduced gold nanoparticles were functionalized with 1 mg/mL mPEG-thiol (5 kDa). Gold nanoparticles were synthesized using citric acid as described previously (11). PEG and CMC peptide coated gold nanoparticles were incubated with 10% human serum for 2 hr at 4° C. followed by centrifugation at 14000 rpm to discard free human serum. Similarly, to study protease degradation, CMC coated gold nanoparticles and bare CMC peptides were treated with 1 mg/mL trypsin (phosphate buffer pH 8) for 2 h at 37° C. After 2 h of reaction, the nanoparticle solution was subjected to centrifugation to remove trypsin. Antimicrobial test was performed with human serum and trypsin treated peptide capped gold nanoparticles against E. coli.

S. aureus = test: as above; assay type: cell-based; details: 10 μg/mL, after 4 hr of incubation, 10% human serum
Procedure: as §1

[1] = Zeta potential of gold nanoparticles; assay type: physicochemical; details: after centrifugation and redispersion in HEPES, room temperature
Procedure: The synthesized gold nanoparticle solutions were centrifuged at 14000 rpm followed by washing with mill-Q water to remove unreacted peptides and HEPES. The centrifuged gold nanoparticles were frozen and fridge dried at 223 K using . . . Thermogravimetric analysis (TGA) of peptide capped gold nanoparticles and gold nanoparticles synthesized without peptides was performed using over a temperature range of 30-600° C. at a heating rate of 10° C./min in presence of N2 gas. The binding of peptide on gold nanoparticle surface was analyzed, preferably by FTIR spectroscopy in ATR mode using JASCO spectrophotometer at 4 cm-1 resolutions with 64 scans. Zeta (ζ) potential of the synthesized gold nanoparticles after centrifugation and redispersion in HEPES were measured, preferably, using Brukerheaven instrument at room temperature.

| Substance | concentration at which negative influence on metabolic activity was also detected (MTT) (HUVEC) | killing of bacteria (E. coli; 10 μg/mL, after 4 hr of incubation, 10% human serum) | incubation time to kill bacteria (E. coli; absence of human serum (FIG. 9)) | antimicrobial activity after trypsin treatment (E. coli; treated with 1 mg/mL trypsin for 2 h at 37° C.) | killing of bacteria (S. aureus) | ζ potential (mV) [1] |
| --- | --- | --- | --- | --- | --- | --- |
| Cecropin-mellitin [soluble CM peptide] | 1000 ng/mL | – | – | – | – | – |
| KWKLFKKIGAVLKVLC [CMC peptide, KWKLFKKIGAVLKVLC] | – | reduced activity | 60 min | did not show any antimicrobial activity | reduced activity | +23±1 mV |
